Results as given in PMC10178848, “Modulating fast skeletal muscle contraction protects skeletal muscle in animal models of Duchenne muscular dystrophy” (The Journal of Clinical Investigation, 2023).

Test system: mdx mouse EDL muscle
Assay: Phosphoprotein array analysis (Cell Signaling Phospho Antibody Array)
Conditions: 4000031744 (T)
Description: mdx mouse EDL muscle was prepared for ex vivo analysis as described (n = 5). Muscles were incubated for 1 hour with DMSO or EDG-5506 (5 μM) and then flash frozen in liquid nitrogen. Tissue preparation and analysis were performed as recommended by the manufacturer (Cell Signaling Phospho Antibody Array, Full Moon Biosystems).

O=c1ccc(-c2cnc(OCC(F)(F)F)nc2)nn1Cc1cncc(F)c1 [EDG-5506]
Average Signal of Replicate Spots: Catenin beta (Phospho-Thr41/Ser45): 1080
Average Signal of Replicate Spots: Chk2 (Phospho-Thr68): 787
Average Signal of Replicate Spots: Cyclin D1 (Phospho-Thr286): 2969
Average Signal of Replicate Spots: Cyclin E1 (Phospho-Thr77): 1889
Average Signal of Replicate Spots: DARPP-32 (Phospho-Thr34): 1112
Average Signal of Replicate Spots: EEF2 (Phospho-Thr56): 1593
Average Signal of Replicate Spots: FADD (Phospho-Ser194): 2520
Average Signal of Replicate Spots: FAK (Phospho-Ser910): 1946
Average Signal of Replicate Spots: FGFR1 (Phospho-Tyr654): 2920
Average Signal of Replicate Spots: GRK2 (Phospho-Ser29): 1817
Average Signal of Replicate Spots: GSK3 alpha/beta (Phospho-Tyr216/279): 1223
Average Signal of Replicate Spots: Gab2 (Phospho-Tyr643): 5234
Average Signal of Replicate Spots: HDAC1 (Phospho-Ser421): 1842
Average Signal of Replicate Spots: HDAC2 (Phospho-Ser394): 1737
Average Signal of Replicate Spots: HSP90B (Phospho-Ser226): 2514
Average Signal of Replicate Spots: IKK-beta (Phospho-Tyr188): 1332
Average Signal of Replicate Spots: IKK-beta (Phospho-Tyr199): 1363
Average Signal of Replicate Spots: IKK-gamma (Phospho-Ser31): 1172
Average Signal of Replicate Spots: IL-4R/CD124 (Phospho-Tyr497): 1616
Average Signal of Replicate Spots: IL-10R-alpha (Phospho-Tyr496): 1513
Average Signal of Replicate Spots: IkB-alpha (Phospho-Ser32/36): 10513
Average Signal of Replicate Spots: Integrin beta-3 (Phospho-Tyr773): 1072
Average Signal of Replicate Spots: JunB (Phospho-Ser259): 1085
Average Signal of Replicate Spots: LYN (Phospho-Tyr507): 1395
Average Signal of Replicate Spots: Lamin A/C (Phospho-Ser392): 969
Average Signal of Replicate Spots: MEK1 (Phospho-Ser217): 790
Average Signal of Replicate Spots: NFkB-p65 (Phospho-Ser311): 1154
Average Signal of Replicate Spots: NFkB-p100/p52 (Phospho-Ser865): 1360
Average Signal of Replicate Spots: P38 MAPK (Phospho-Thr180/Tyr182): 2391
Average Signal of Replicate Spots: P70S6K (Phospho-Ser424): 1169
Average Signal of Replicate Spots: P90RSK (Phospho-Thr359/Ser363): 1665
Average Signal of Replicate Spots: PDK1 (Phospho-Ser241): 2037
Average Signal of Replicate Spots: PLCG1 (Phospho-Tyr783): 8981
Average Signal of Replicate Spots: PLK1 (Phospho-Thr210): 732
Average Signal of Replicate Spots: PP2A-alpha (Phospho-Tyr307): 1166
Average Signal of Replicate Spots: PPAR-gamma (Phospho-Ser112): 1480
Average Signal of Replicate Spots: Rb (Phospho-Ser807): 1194
Average Signal of Replicate Spots: RelB (Phospho-Ser552): 3212
Average Signal of Replicate Spots: SAPK/JNK (Phospho-Tyr185): 1041
Average Signal of Replicate Spots: SHP-2 (Phospho-Tyr542): 1268
Average Signal of Replicate Spots: STAT3 (Phospho-Tyr705): 1079
Average Signal of Replicate Spots: STAT4 (Phospho-Tyr693): 52519
Average Signal of Replicate Spots: STAT6 (Phospho-Thr645): 1124
Average Signal of Replicate Spots: SYK (Phospho-Tyr348): 1249
Average Signal of Replicate Spots: Smad1 (Phospho-Ser187): 2057
Average Signal of Replicate Spots: Smad2 (Phospho-Ser467): 1265
Average Signal of Replicate Spots: Smad2/3 (Phospho-Thr8): 2539
Average Signal of Replicate Spots: Smad3 (Phospho-Ser213): 1879
Average Signal of Replicate Spots: Src (Phospho-Tyr418): 10867
Average Signal of Replicate Spots: Tau (Phospho-Ser396): 1057
Average Signal of Replicate Spots: VEGFR2 (Phospho-Tyr1175): 1051
Average Signal of Replicate Spots: Zap-70 (Phospho-Tyr319): 1504
Average Signal of Replicate Spots: c-Jun (Phospho-Ser73): 1180
Average Signal of Replicate Spots: p44/42 MAP Kinase (Phospho-Tyr204): 1035
Average Signal of Replicate Spots: p53 (Phospho-Ser15): 1903
Data Normalized to Median Signal: 4E-BP1 (Phospho-Thr45): 3.29
Data Normalized to Median Signal: 14-3-3 theta/tau (Phospho-Ser232): 1.12
Data Normalized to Median Signal: ACC1 (Phospho-Ser80): 0.89
Data Normalized to Median Signal: AMPKbeta1 (Phospho-Ser182): 0.93
Data Normalized to Median Signal: B-RAF (Phospho-Ser446): 1.22
Data Normalized to Median Signal: BCL-XL (Phospho-Ser62): 2.75
Data Normalized to Median Signal: BLNK (Phospho-Tyr96): 0.68
Data Normalized to Median Signal: CBL (Phospho-Tyr700): 1.31
